Measurements: patent US20250064762A1, “A SUBSTITUTED AROMATIC DICARBONIC ACID AMIDE AS AN INHIBITOR OF THE FERROPTOSIS SUPPRESSOR PROTEIN-1 (FSP1)” (JULIUS-MAXIMILIANS-UNIVERSITÄT WÜRZBURG, priority 2021, published 2025)

Assays:
[1] = system: HT1080 cells; experiment: Lipid droplet staining with BODIPY 493/503; assay type: cell-based, human; conditions: CPBA 100 μM; T863 10 μM and PF-06424439 5 μM; 16 h
Description: HT1080 cells were seeded on glass coverslips (15,000 cells per well of 12-well plate) in complete DMEM, and incubated for 16 h with 100 μM CPBA or with 0.1% of the DMSO solvent control, in the absence or presence of inhibitors of DGAT1 and DGAT2 (10 μM T863/iDGAT1; 5 μM PF-06424439/iDGAT2). Cells were fixed with 4% para-formaldehyde, lipid droplets were stained with the neutral lipid droplet stain BODIPY 493/503 (2 μM, 30 min), and nuclei were counterstained with 4′,6-diamidino-2-phenylindole (DAPI). Cells were mounted with Immu-Mount (Fisher Scientific), and imaged by fluorescence microscopy on a THUNDER imager (THUNDER Imager Live Cell & 3D Cell Culture & 3D Assay system, Leica DMI8; Leica Microsystems), using a 63× objective.
We next investigated the impact of CPBA on triglyceride levels and ferroptosis sensitivity by first imaging lipid droplets with the neutral lipid stain BODIPY 493/503.
The diglyceride acyltransferase isoforms 1 and 2 (DGAT1, DGAT2) are required to catalyze the formation of triglycerides from diacylglycerol and acyl-CoA.

[2] = system: GPX4-KO/FSP1-OE HT1080 cells; experiment: Viability of FSP1-dependent GPX4-KO cells with serial dilutions of CPBA, no FINs; assay type: cell-based, human; conditions: GPX4-KO, FSP1-dependent cells treated with CPBA
Description: The following HT1080 fibrosarcoma cell lines were generated using CRISPR/Cas9 technology, as previously described (Doll et al., 2019): HT1080 GPX4-knockout (KO) cells (maintained in the presence of 100 μM α-tocopherol); HT1080 GPX4 knockout cells overexpressing FSP1 (GPX4-KO/FSP1-OE); GPX4-KO cells overexpressing FSP1 and re-expressing GPX4 (GPX4-KO/FSP1-OE/GPX4-OE); HT1080 FSP1-WT or FSP1-KO cells; and HT1080 FSP1-KO cells reconstituted with either FSP1-WT or FSP1-G2A. LOX-IMVI (BRAF V600E heterozygous human melanoma cells) expressing either the Venus mock vector or FSP1-Venus (Doll et al., 2019) were grown in RPMI-1640 supplemented with 10% FCS, 2 mM L-glutamine and Pen/Strep.
Next, we tested the effect of CPBA on ferroptotic cell death in GPX4-deficient HT1080 cells whose survival depends on the expression of FSP1 in order to suppress ferroptosis in the absence of GPX4. GPX4 knockout cells overexpressing FSP1 (GPX4-KO/FSP1-OE), or GPX4-KO cells overexpressing FSP1 and re-expressing GPX4 (GPX4-KO/FSP1-OE/GPX4-OE) were incubated with serial dilutions of CPBA. Note that no ferroptosis inducers (FINs) were added. Protein expression was confirmed by Western Blot as described above (see FIG. 11).

Structure (SMILES) | lipid droplets [1] | prevention of CPBA-induced cell death [2]
CS(=O)(=O)O.O=C([C@@H]1CCCN(c2ccc3[nH]c(C4(n5cc(Cl)cn5)CC4)nc3n2)C1)N1CCCC1 [PF-06424439] | blocked lipid droplet formation both in DMSO- and in CPBA-treated cells | –
CC1(C)Oc2ncnc(N)c2N=C1c1ccc([C@H]2CC[C@H](CC(=O)O)CC2)cc1 [T863] | blocked lipid droplet formation both in DMSO- and in CPBA-treated cells | –
Clc1cccc(CN=C2Nc3ccccc3NC23CCNCC3)c1 [liproxstatin-1, reference compound] | – | cell death is prevented by liproxstatin-1
